Data on nine compounds can be found in patent US10106502B2, “Direct inhibitors of Keap1-Nrf2 interaction as antioxidant inflammation modulators” (Rutgers, The State University of New Jersey, priority 2011, dated 2018).

As usually defined, the IC50 is the concentration that inhibits the measured activity by half. Broadly, the EC50 is the concentration that produces a half-maximal response. In general, Kd refers to the constant that tells how readily two partners part at equilibrium.

In assay [1] the target is T1, Keap1 Kelch domain (Homo sapiens, UniProt Q14145). In words: FP assay, dose-response retest of HTS hits. The assay is classed as binding. More on the design: Human Keap1 Kelch domain protein was cloned into expression vector pET15b; inferred from vector pET15b and Ni-NTA purification) (N); made in house; host or cells: E. coli BL21 (DE3). Here is the method: Human Keap1 Kelch domain protein was cloned into expression vector pET15b and transformed into E. coli BL21 (DE3) strain. The protein was purified through Ni-NTA affinity column. Purified protein was stored in the buffer containing 20 mM HEPES (pH7.4), 5 mM DTT at −80° C.
2) 60 mL of 8 μM Ac-9mer-Nrf2 was prepared by taking 0.48 mL of 1 mM Ac-9mer-Nrf2 in 100% DMSO in 60 mL FP buffer 3) 500 mL of 400 nM Keap1 Kelch domain was prepared by taking 9 mL of 0.75 mg/mL Keap1 Kelch domain in 500 mL FP buffer.
10 nM FITC-9mer-Nrf2-NH2, 100 nM Kelch Kelch domain.
The first of these assays is an FP assay that uses a fluorescently labeled Nrf2 peptide amide as the probe and directly measures the displacement of fluorescent probe from the Nrf2-binding site of Keap1 Kelch domain by inhibitors via changes in fluorescence anisotropy. […] The second of the fluorescence-based assays is a time-resolved fluorescence energy transfer (TR-FRET) assay which uses an in situ labeling method we recently developed to attach a lanthanide chelate to Keap1 Kelch domain as the FRET donor and fluorescein-labeled Nrf2 peptide as the acceptor. One advantage of the TR-FRET assay is that it is less susceptible to compound interference than an FP assay.

The test system of assay [2] is CellSensor® ARE-bla Hep G2 cell line. In words: cell-based ARE β-lactamase reporter assay. More on the design: species or system human. (Reporter assays use an easily measured gene product as a stand-in for the process of interest.)
Assay [3] has as its target T1, Keap1 Kelch domain. Briefly: SPR-based solution competition assay. The assay is classed as binding. More on the design: 40 nM of Keap1 Kelch domain was incubated in the presence of test compounds; inferred from vector pET15b and Ni-NTA purification of the one described Kelch preparation) (N); made in house; host or cells: E. coli BL21 (DE3).
The mark [4] stands for this setting: Keap1-retest in dose, 8-point FP dose-response of HTS hits.

T1 sequence (Q14145 321-609 limits assumed): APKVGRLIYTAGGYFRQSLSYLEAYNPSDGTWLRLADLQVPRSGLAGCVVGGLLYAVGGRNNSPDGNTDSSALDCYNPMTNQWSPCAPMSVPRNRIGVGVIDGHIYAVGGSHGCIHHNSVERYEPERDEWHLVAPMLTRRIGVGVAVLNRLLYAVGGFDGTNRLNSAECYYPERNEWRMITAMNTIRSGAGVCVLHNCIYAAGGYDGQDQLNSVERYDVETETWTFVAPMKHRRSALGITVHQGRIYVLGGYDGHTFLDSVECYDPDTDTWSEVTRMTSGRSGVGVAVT

For `NS(=O)(=O)c1cc(C(=O)NC2CCSc3ccccc32)ccc1Cl` (stereo not drawn) [BRD-A83249228-001-07-1, 3-(Aminosulfonyl)-4-chloro-N-(3,4-dihydro-2H-1-benzothiopyran-4-yl)benzamide], in assay [1] (setting [4]), half-maximal inhibition (IC50) was put at 135 µM. The same measure, in the same setting: for `CC1=C[C@@H]2c3cccc4[nH]cc(c34)C[C@H]2N(C)C1` [BRD-K56215778-001-06-9, 8,9-Didehydro-6,8-dimethyl-ergoline] the value was 37 µM.

The compound `COc1ccc(C(C)=NNc2ccc([N+](=O)[O-])cc2S(=O)(=O)Nc2ccccc2C(=O)O)c(OC)c1` [BRD-K09114961-001-03-6, 2-[[[2-[2-[1-(2,4-dimethoxyphenyl)ethylidene]hydrazinyl]-5-nitrophenyl]sulfonyl]amino] benzoic acid] had a concentration for half-maximal inhibition (IC50) in assay [1] (setting [4]) of 26 µM. In turn, `COc1cc(NS(=O)(=O)c2ccc(NC(=S)NC(=O)/C=C/c3ccco3)cc2)ncn1` [BRD-K42553821-001-05-9, 3-(2-Furanyl)-N-[[[4-[[(6-methoxy-4-pyrimidinyl)amino]sulfonyl]phenyl]amino]-thioxomethyl]-2-Propenamide] had an IC50 in assay [1] (setting [4]) of 91 µM. For `Cc1ccc(S(=O)(=O)Nc2cc(C(C(=O)OC(C)C)C(=O)C(F)(F)F)c(O)c3ccccc23)c(C)c1` (racemic) [LH602, 4-[[(2,4-Dimethylphenyl)sulfonyl]amino]-1-hydroxy-α-(2,2,2-trifluoroacetyl)-2-naphthaleneacetic acid, 1-methylethyl ester], the concentration giving a half-maximal response (EC50) in assay [2] (Homo sapiens, HepG2, read-out: EC50 of ARE-inducing activity) is 16 to 18 µM. Moreover, the Kd in assay [3] (Keap1 Kelch domain, SPR, read-out: Kd (Keap1 binding affinity)) was found to be 1.7 µM. Further, the half-maximal inhibitory concentration (IC50) was determined as 2.7 µM in assay [1] (setting [4]) and 3 µM in assay [1] (resynthesized compound).

With `O=C(O)[C@H]1CCCC[C@H]1C(=O)N1CCCCC1CN1C(=O)c2ccccc2C1=O` (relative stereo) [LH641, cis-2-(2-((1,3-dioxoisoindolin-2-yl)methyl)piperidine-1-carbonyl)cyclohexane carboxylic acid], the “binding to Keap1 Kelch domain (in words)” value in assay [3] was “complete loss of binding”. Consider `O=C(O)[C@@H]1CCCC[C@@H]1C(=O)N1CCc2ccccc2C1CN1C(=O)c2ccccc2C1=O` (relative stereo) [LH601C/D], for which the “ARE-inducing activity (in words)” value in assay [2] was “inactive”.

For `O=C1CCCc2oc3c(cc(NS(=O)(=O)c4ccc5c6c(cccc46)C(=O)N5)c4ccccc43)c21` [BRD-K91732811-001-06-9, 1,2-Dihydro-2-oxo-N-(7,8,9,10-tetrahydro-7-oxobenzo[b]naphtho[2,1-d]furan-5-yl) benz[cd]indole-6-sulfonamide], in assay [1] (setting [4]), the IC50 amounted to 55 µM. Same read-out and setting: for `O=C(O)c1cc(N2C(=O)C=CC2=O)cc(N2C(=O)C=CC2=O)c1` [BRD-K11951445-001-04-1, 3,5-Bis(2,5-dihydro-2,5-dioxo-1H-pyrrol-1-yl)-benzoic acid] the value was 19 µM.
